For the assay, the system named is Klebsiella pneumoniae. The experiment in a line: Tested for inhibition of oxygen uptake by the compound included in an extract of Klebsiella pneumoniae along with substrate 1 at the dose of 0.8 mM; No inhibition. The class given is functional, organism-based.

Molecules are shown by their SMILES. Calls of active or inactive are those of the source. No cut-off for these calls is given here.

`CSCC1OC(CP(=O)(O)O)[C@H](O)[C@@H]1O` (stereo partly specified): the result was inactive.
